Reference: patent publication US20120265121A1, “PHTHALOCYANINE-BASED ANTIFUNGAL AGENTS” (CASE WESTERN RESERVE UNIVERSITY, priority 2011, published 2012)

Columns and labels:
[1] = system: C. albicans (strain SC-5134); test: Chromatin condensation by confocal microscopy; type: cell-based, Candida albicans; conditions: highest dose of Pc 4-PDT or peroxide, 24 hr after treatment
Experimental: Confocal Microscopy: To investigate the uptake and localization of Pc 4, cells in standard growth medium plus 10% Fetal Bovine Serum (FBS) were loaded with 0.2 μM Pc 4 and incubated for 16 to 18 hr. Thirty minutes prior to imaging Pc 4, 50 nM MitoTracker Red (Invitrogen, Carlsbad, Calif., USA) or 50 μg/mL AlexaFluor 488-conjugated Concanavalin (Con) A (Invitrogen, Carlsbad, Calif., USA) and/or 10 μg/mL Hoechst 33342 (Invitrogen, Carlsbad, Calif., USA) was loaded onto cells. Five to 10 μL of stained cells were placed on a slide with a glass coverslip and all images acquired using an UltraVIEW VoX spinning disk confocal system (PerkinElmer, Waltham, Mass., USA), which was mounted on a Leica DMI6000B microscope (Leica Microsystems, Inc., Bannockburn, Ill., USA) equipped with a HCX PL APO 100×/1.4 oil immersion objective. Confocal images of Pc 4 fluorescence, MitoTracker Red, ConA (or FITC-labeled Annexin V) and Hoechst 33342 were collected using solid-state diode lasers, with 640-nm, 561-nm, 488-nm and 405-nm excitation light, respectively, and with appropriate emission filters.

T. rubrum [2] = test: XTT reduction assay after Pc 4-PDT; type: cell-based, Trichophyton rubrum
Experimental: (§1) Terbinafine sensitive (23013) and resistant (MRL666) strains of T. rubrum were grown onto Sabouraud potato agar plate for at least 24 hours at 28° C. Microconidia were separated from most of the hyphae form before treating with Pc 4-PDT.

[3] = type: in vitro ADME, human
Excerpt: Because drug penetration into and through the nail plate is always a challenge in the treatment of onychomycosis, the nail absorption of topically applied Pc 4 was also investigated. […] Considering that these samples were healthy nails, it appears that diseased/dystrophic nails whose barrier functions have been compromised may even have better Pc 4 absorption. Nonetheless, in the clinical protocol, the inventors specified that Pc 4 will be applied not only on the nail plate but also on the exposed subungual tissue and periungual area.

[4] = system: C. albicans (strain SC-5134); test: FITC-labeled Annexin V staining of protoplasts (phosphatidylserine externalization); type: cell-based, Candida albicans; conditions: 1.0 μM Pc 4-PDT, 2.0 J/cm^2, within 4 to 5 hours of PDT
Experimental: Cells were then incubated for 4 hr before staining with FITC-labeled Annexin V. FIG. 4(a) provides confocal images of FITC-labeling of cells that had been treated with H2O2 or Pc 4-PDT. Scale bar, 20 μm. FIG. 4(b) provides a bar graph showing the results. For each experiment over 50-100 protoplasts cells were counted per sample. […] Cells were counted by eye using a Zeiss AxiovertTM S100 inverted epifluorescence microscope. Values represent the mean±S.E. from at least three independent experiments. […] Apoptosis Analyses: (A) FITC-labeled Annexin V staining-To assess the externalization of phosphatidylserine, protoplasts of C. albicans were stained with FITC-labeled Annexin V using the Annexin V-FLUOS staining kit (Roche, Germany) with minor modifications. Madeo et al., J Cell Biol 139:729-734 (1997); Park et al., Biochem Biophys Res Commun 394:170-172 (2010). Briefly, control and treated cells were washed three times with 1× PBS before incubating at 37° C. for 30 min in a protoplasting solution (50 mM KH2PO4, 5 mM EDTA and 50 mM DTT). Then cells were digested at 37° C. for 45 min in an enzyme solution (50 mM K2HPO4, 40 mM 2-mercaptoethanol, 3 μg/mL Chitinase, 1.8 μg/mL […], 0.15 mg/mL Zymolyase and 2.4 M sorbitol). 1× PBS was added to each sample and incubated for 30 min at room temperature in all experiments. Protoplasts were then incubated with 100 μL of Annexin V-FLUOS labeling solution for 15 min at 25° C. FITC-labeled Annexin V fluorescence was detected by both widefield (Leica DMI6000B microscope; Leica Microsystems, Inc., Bannockburn, Ill., USA) and confocal fluorescence microscopy.

[5] = light dose 50 J/cm^2; cited from earlier work
T. rubrum [6] = test: Turbidity growth assay of microconidia after Pc 4-PDT; type: cell-based, Trichophyton rubrum; conditions: Pc 4 up to 2 μM, 2.0 J/cm^2
Experimental: as §1

[7] = mice, delivered systemically; cited from earlier work
[8] = terbinafine resistant strain MRL666
[9] = terbinafine sensitive strain 23013

In the case of `CN(C)CCC[Si](C)(C)O[Si]1(O)n2c3c4ccccc4c2N=C2N=C(N=c4c5ccccc5c(n41)=NC1=NC(=N3)c3ccccc31)c1ccccc12` (stereo not drawn) [Pc 4, HOSiPcOSi(CH3)2(CH2)3N(CH3)2], the chromatin condensation [1] is reported as “detected”, the “metabolic activity (XTT)” value (T. rubrum [2]; [8]) is reported as “attenuates following Pc 4-PDT” and the “metabolic activity (XTT)” value (T. rubrum [2]; [9]) is reported as “attenuates following Pc 4-PDT”. For the same compound, the “Pc 4 fluorescence within the nail plate” value [3] was “significant amount of Pc 4 fluorescence can be detected within the nail plate”, the “Annexin V positive cells” value [4] was 20% and the tolerability [5] was “well-tolerated”. For the same compound, the growth of microconidia (T. rubrum [6]; [8]) was “inhibited by Pc 4-PDT in a dose response fashion”, the growth of microconidia (T. rubrum [6]; [9]) was “inhibited by Pc 4-PDT in a dose response fashion” and the “clearance compared with Photofrin” value [7] was “much more rapidly cleared than Photofrin”.
